Source: PMC2661360 (PLoS ONE, 2009)
Entries after “also recorded” stand apart in the source; their conditions may differ. Values belong to the molecule of their own block, whether it stands above or below them. Square brackets hold non-standard residues; d marks the D form. Peptide text beside a SMILES is read from it. * marks the point of attachment. Sta = CC(C)C[C@H](N)[C@@H](O)CC(=O)O; Isovaleryl = CC(C)CC(=O)*

What was measured:
[1] = system: Saccharomyces cerevisiae; test: Degradation of Hst-5 by Saccharomyces cerevisiae; conditions: compared to C. albicans (Figure S2)
[2] = system: C. albicans whole cells; test: Degradation assay of Hst-5 with C. albicans whole cells; design: species or system Candida albicans
Description: (§1) The C. albicans SC5314 strain, the C. albicans SAP null mutants sap1–3 triple mutant (lacking SAP1–3), sap4–6 triple mutant (lacking SAP4–6), sap9 single mutant (lacking SAP9), sap10 single mutant (lacking SAP10) and sap9,10 double mutant (lacking both SAP9 and SAP10), as well as the parent strain CAI4 (URA-) were used in these experiments, [43], [44]. Strains were grown in YPD broth (Difco Laboratories, Detroit, MI) overnight at 30°C with shaking and cells were equilibrated in fresh media to an optical density of 1.0 at OD600. High purity Hst-5, proteinase K, PMSF and pepstatin A were purchased from Sigma (Sigma-Aldrich Chemical, St. Louis, MO). Histatin-5 was reconstituted in 1 mM phosphate-buffered saline (PBS) and used at a final concentration of 150 µg/ml (within the range of physiological salivary concentration) in all experiments unless otherwise stated. All experiments were performed on at least three separate occasions.
The intensity of the bands on the Coomassie-stained gels was assessed by densitometric analysis using a MultiImager scanner (Bio-Rad Laboratories, Hercules California) and images analyzed with the PDQuest version 7.0 (BioRAd).

[3] = biological target: T1, Sap9 (Candida albicans, UniProt Q59SU1); conditions: MALDI-TOF/TOF MS peptide mapping
T1 sequence (Q59SU1 18-520): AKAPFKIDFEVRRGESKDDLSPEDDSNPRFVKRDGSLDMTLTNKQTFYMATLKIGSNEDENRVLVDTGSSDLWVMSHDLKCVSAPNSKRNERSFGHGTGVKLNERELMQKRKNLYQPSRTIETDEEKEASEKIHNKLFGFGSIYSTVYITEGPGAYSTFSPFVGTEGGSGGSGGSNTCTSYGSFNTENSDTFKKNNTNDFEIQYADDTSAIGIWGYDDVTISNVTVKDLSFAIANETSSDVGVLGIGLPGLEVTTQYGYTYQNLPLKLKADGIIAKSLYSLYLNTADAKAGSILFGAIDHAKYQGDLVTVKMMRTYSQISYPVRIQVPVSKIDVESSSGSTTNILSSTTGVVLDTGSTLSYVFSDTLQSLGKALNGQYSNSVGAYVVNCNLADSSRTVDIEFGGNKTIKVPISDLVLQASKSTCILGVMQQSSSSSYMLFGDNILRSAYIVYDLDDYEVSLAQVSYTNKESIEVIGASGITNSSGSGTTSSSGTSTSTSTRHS
Excerpt: The recombinant proteases Sap9 and Sap10 were produced in Pichia pastoris as described previously, [45]. Briefly, P. pastoris strain GS115 was transformed with the expression plasmid pKJ113 carrying truncated SAP9 and SAP10 versions lacking signal peptide- and GPI anchor consensus- encoding sequences. Proteases were recovered from culture supernatants and purified via anion exchange chromatography. Activity of proteases was verified by using a standard fluorescence casein based assay (Molecular Probes). Purified proteases (0.05, 0.1, 0.25 and 0.5 µg) were incubated with Hst-5 for 2 h. Following, samples were processed as described above.
Supernatants from the various degradation reactions were subjected to peptide mapping in order to determine the sequences of cleaved fragments, identify cleavage sites on the Hst-5 as well as other cleavage products that may not be visible by electrophoresis. […] Peptide samples were mixed with saturated α-cyano-4-hydroxycinnamic acid in acetonitrile∶trifluoroacetic acid 0.1% (1∶2 v/v) then measured on an Ultraflex MALDI-ToF/ToF device using flexControl 3.0 for data collection and flexAnalysis 3.0 for spectra analysis and peaklist generation (Bruker Daltonics GmbH, Germany). […]

[4] = system: Candida glabrata
[5] = system: C. albicans SAP null mutants; design: species or system Candida albicans; conditions: sap10 single mutant compared to parent strain CAI4 and SC5314 (Figure 4)
Description: as §1

[6] = biological target: Sap5 (Candida albicans, UniProt P43094); conditions: data not shown
Sap5 (Candida albicans, UniProt P43094), sequence (P43094 77-418): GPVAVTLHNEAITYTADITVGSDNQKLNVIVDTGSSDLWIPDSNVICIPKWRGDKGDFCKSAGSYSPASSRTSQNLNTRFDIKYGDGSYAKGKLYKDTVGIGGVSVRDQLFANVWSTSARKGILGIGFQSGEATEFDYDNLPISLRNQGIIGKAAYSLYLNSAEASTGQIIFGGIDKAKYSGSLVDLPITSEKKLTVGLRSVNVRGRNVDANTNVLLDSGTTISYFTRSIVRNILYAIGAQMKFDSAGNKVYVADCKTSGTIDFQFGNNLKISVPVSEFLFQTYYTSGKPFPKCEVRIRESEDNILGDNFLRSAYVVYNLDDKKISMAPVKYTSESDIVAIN

[7] = system: cell-free supernatants of C. albicans cell suspensions; test: Degradation assay of Hst-5 with cell-free supernatants; design: species or system Candida albicans; conditions: C. albicans supernatant compared to whole C. albicans cells; SDS-PAGE (Figure 3C)
Description: Degradation assays were performed by incubating Hst-5 with 100 µl of standardized cell concentrations of the C. albicans strains in PBS for 2 h at 37°C. Unless otherwise stated, C. albicans strains were used in experiments at a cell concentration of 2×10^8 cells/ml (generating two visible bands). Protease K was used as a positive control and negative controls with peptide and no C. albicans were included. Following incubation, samples were collected, heated at 100°C to remove proteolytic activity and analyzed by sodium dodecyl sulfate polyacrylamide gel electrophoresis (SDS-PAGE). Experiments were also performed using increasing C. albicans cell densities and at different time points where samples were collected following 20, 60 and 120 minutes incubation. In addition, assays were performed using cell-free supernatants from C. albicans cell suspensions to determine whether the proteolytic substance is secreted.

[8] = system: C. albicans cells; test: Inhibition of C. albicans degradation of Hst-5 by protease inhibitors; format: cell-based, Candida albicans; conditions: 1 mM inhibitor in the degradation assay; SDS-PAGE (Figure 3B)
[9] = biological target: proteinase K (Parengyodontium album, UniProt P06873); test: Inhibition of proteinase K degradation of Hst-5 by protease inhibitors; format: biochemical; design: purchased Sigma (Sigma-Aldrich Chemical, St. Louis, MO); conditions: 1 mM inhibitor; SDS-PAGE (Figure 3A)
proteinase K, sequence (P06873 106-384): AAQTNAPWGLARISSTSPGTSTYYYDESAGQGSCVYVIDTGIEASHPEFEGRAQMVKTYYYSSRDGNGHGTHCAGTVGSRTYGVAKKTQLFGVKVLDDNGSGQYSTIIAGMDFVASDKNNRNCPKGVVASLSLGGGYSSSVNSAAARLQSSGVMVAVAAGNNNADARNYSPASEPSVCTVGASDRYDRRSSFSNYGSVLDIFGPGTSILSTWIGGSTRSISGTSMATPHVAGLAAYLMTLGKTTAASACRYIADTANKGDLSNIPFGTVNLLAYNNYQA

[10] = biological target: Sap10 (Candida albicans, UniProt Q5A651); test: Inhibition of Sap10 degradation of Hst-5; format: biochemical; design: made in house; host or cells: Pichia pastoris GS115 (plasmid pKJ113); conditions: purified Sap10 protease; SDS-PAGE (Figure 3D)
Sap10, sequence (Q5A651 21-429): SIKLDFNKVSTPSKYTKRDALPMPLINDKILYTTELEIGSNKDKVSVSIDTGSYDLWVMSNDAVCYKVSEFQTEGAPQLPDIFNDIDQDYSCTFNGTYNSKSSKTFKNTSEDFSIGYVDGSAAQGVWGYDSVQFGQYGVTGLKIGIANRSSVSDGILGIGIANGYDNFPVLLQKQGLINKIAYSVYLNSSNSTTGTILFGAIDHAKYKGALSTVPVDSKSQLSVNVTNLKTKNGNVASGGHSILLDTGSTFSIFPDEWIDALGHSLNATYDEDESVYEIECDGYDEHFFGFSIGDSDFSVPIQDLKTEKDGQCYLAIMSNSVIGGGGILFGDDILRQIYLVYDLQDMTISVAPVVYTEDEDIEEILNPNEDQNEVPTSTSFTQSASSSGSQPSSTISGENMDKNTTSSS
Excerpt: (§2) Following, samples were processed as described above.

[11] = biological target: T1, Sap9; test: Inhibition of Sap9 degradation of Hst-5; format: biochemical; design: made in house; host or cells: Pichia pastoris GS115 (plasmid pKJ113); conditions: purified Sap9 protease; SDS-PAGE (Figure 3D)
Excerpt: as §2

[12] = C. albicans cells in PBS with pepstatin A; conditions: 37°C, up to 2 h
[13] = C. albicans whole cells (SC5314) in PBS, 2×10^8 cells/ml; conditions: 37°C, up to 2 h
[14] = system: Sap9; test: purified recombinant Sap9 protease; conditions: C. albicans, up to 2 h
[15] = C. albicans whole cells (2×10^8 cells/ml) in PBS; conditions: Candida albicans, 37°C, up to 2 h
[16] = system: Sap5; test: Sap5 protease; conditions: C. albicans, up to 2 h

Molecule: C[C@H](NC(=O)[C@H](Cc1cnc[nH]1)NC(=O)[C@H](CO)NC(=O)[C@@H](N)CC(=O)O)C(=O)N[C@@H](CCCCN)C(=O)N[C@@H](CCCNC(=N)N)C(=O)N[C@@H](Cc1cnc[nH]1)C(=O)N[C@@H](Cc1cnc[nH]1)C(=O)NCC(=O)N[C@@H](Cc1ccc(O)cc1)C(=O)N[C@@H](CCCCN)C(=O)N[C@@H](CCCNC(=N)N)C(=O)N[C@@H](CCCCN)C(=O)N[C@@H](Cc1ccccc1)C(=O)N[C@@H](Cc1cnc[nH]1)C(=O)N[C@@H](CCC(=O)O)C(=O)N[C@@H](CCCCN)C(=O)N[C@@H](Cc1cnc[nH]1)C(=O)N[C@@H](Cc1cnc[nH]1)C(=O)N[C@@H](CO)C(=O)N[C@@H](Cc1cnc[nH]1)C(=O)N[C@@H](CCCNC(=N)N)C(=O)NCC(=O)N[C@@H](Cc1ccc(O)cc1)C(=O)O [Hst-5, Histatin-5]
degradation of Hst-5 by S. cerevisiae [1]: significant enhanced degradation | degradation of Hst-5 by C. albicans ([2]; 1×10^2 cells/ml and below, physiological concentrations of Hst-5): unable to degrade | degradation of Hst-5 by C. albicans ([2]; 1×10^6 cells/ml, 2 h 37°C, SDS-PAGE): no degradation | degradation of Hst-5 by C. albicans ([2]; 2×10^9 cells/ml, 2 h 37°C, SDS-PAGE): significant degradation | degradation of Hst-5 by C. albicans over time ([2]; 20 mins incubation at 37°C, SDS-PAGE, lower weight product): Minor degradation | degradation of Hst-5 by C. albicans over time ([2]; 1 h and 2 h incubation at 37°C, SDS-PAGE): significantly increasing level of degradation | time in which C. albicans degrades Hst-5 ([2]; C. albicans cells, 37°C, PBS, SDS-PAGE (Figure 2A)): ≤ 20 min | degradation of Hst-5 by C. albicans cells ([2]; Hst-5 150 µg/ml in PBS with 100 µl C. albicans cells (2×10^8 cells/ml unless stated), 2 h 37°C, SDS-PAGE, densitometry, at least three occasions): efficiently and rapidly degrade | level of degradation versus Hst-5 concentration ([2]; Hst-5 50–200 µg/ml, data not shown): inversely proportional to Hst-5 concentration | cleavage site of Sap9 on Hst-5 [3]: Lys13 | degradation of Hst-5 by C. glabrata [4]: significant enhanced degradation | degradation of Hst-5 by sap10 mutant [5]: some degree of inhibition | degradation of Hst-5 by Sap5 purified protease [6]: did not degrade | degradation of Hst-5 by cell-free supernatants [7]: significantly less degradation; also recorded: Minimal degradation

Molecule: O=S(=O)(F)Cc1ccccc1 [PMSF]
inhibition of C. albicans degradation of Hst-5 [8]: not and failed to inhibit | inhibition of proteinase K degradation of Hst-5 [9]: inhibition of degradation; also recorded: inhibited

Molecule: CC(C)CC(=O)N[C@H](C(=O)N[C@H](C(=O)N[C@@H](CC(C)C)[C@@H](O)CC(=O)N[C@@H](C)C(=O)N[C@@H](CC(C)C)[C@@H](O)CC(=O)O)C(C)C)C(C)C [pepstatin A] (Isovaleryl-VV[Sta]A[Sta]-OH)
inhibition of C. albicans degradation of Hst-5 [8]: inhibition of C. albicans degradation; also recorded: resulted in inhibition of degradation; also recorded: salvaged Hst-5 from degradation | inhibition of Sap10 degradation of Hst-5 [10]: inhibition of degradation; also recorded: inhibited | inhibition of Sap9 degradation of Hst-5 [11]: inhibition of degradation; also recorded: inhibited

not cleaved [12]: salvaged Hst-5 from degradation | cleaved bond [13]: R12-Lys13; also recorded: K17-H18 | cleaved bond [14]: R12-Lys13 | cleaved bond [15]: K17-H18 | not cleaved [16]: did not degrade Hst-5
Molecule: DSHAKRHHGYKRKFHEKHHSHRGY
